Laboratory results from patent US20180177147A1, “METHODS AND COMPOSITIONS FOR CULTIVATING PLANTS AND ARTIFICIAL PLANT SEEDS” (E I DU PONT DE NEMOURS AND COMPANY, priority 2014, published 2018).

Assays:
sugarcane choplets [1] = assay: Soil outcomes of unembedded and embedded (F4 paper tube artificial seed) choplets incubated in various media; type: in vivo; conditions: 21 hr in bathing solution, MetroMix soil
Method: This example describes the soil growth advantage conferred by the enclosure or encapsulation of sugarcane choplets in paper tubes with Parafilm™ covers at bottom and top. The choplets were from plantlets produced by a standard plantlet production process or from a hardening treatment (e.g. high CO2) in the temporary immersion Adaptis™ bioreactors. The choplets were incubated in various media. The media were sterile water; LPM; BAP=[…] prepared by solubilizing solid in dimethylsulfoxide to make 1 mg/mL stock then diluted stock solution in water (50 uL to 50 mL final volume) to prepare 1 mg/L working solution; GA3=giberellin 3 prepared by diluting commercial stock solution (1 mg/mL) in water to form a 1 mg/L working solution. The choplets were segregated into 4 groups of at least 50 choplets. Each group of choplets was weighed on a petri dish before addition of the 7 mL of bathing solution: water; LPM; BAP; and GA3. Each dish was covered and the edge was sealed with 3M Micropore™ tape. The petri dishes were secured to a nutator inside a walk-in growth chamber for 21 hr. For each choplet group, either ten (10) or twenty (20) F4 paper seed structures containing MetroMix™ soil and 200 uL water were assembled with triblock top and bottom lids. The structures were transplanted in a flat containing water-saturated MetroMix™ soil such that the top of the seed design is flush with the top of the soil surface. Encapsulating the choplet in an artificial seed provided improvement in soil survival for all media incubation groups except GA3.

sugarcane choplets [2] = assay: Survival in synthetic soil of choplets from hardened plantlets after one-day immersion in water or hormone media; type: in vivo; conditions: 1-day choplet treatment, 40 planted; for % surviving: day 10 in soil; for alive @ day 10: soil, artificial growth chamber
Method: This example describes choplet growth outcomes in soil (survival; morphology) when the plantlets were hardened by various treatments such as nutrient deprivation or osmoticum exposure. The hardening protocols for the plantlets were gradual (multi-day) acclimation of the tissue to decreasing sucrose and/or to increasing polyethylene glycol 6000 (PEG-6000) in LPM. The hardening treatment was evaluated at two stages: the growth of treated plantlets transplanted to synthetic soil; and the survival of choplets from plantlets in a controlled environment.
In another study, three hardening treatments were evaluated but group C hardening treatment was modified: Group C plantlets were grown in LPM for 7 days followed by transfer every two days to a medium containing higher PEG-6000 levels until the medium content had 3% sucrose and 0.2% PEG-6000. At the end of growth in tissue culture (17 days), the plantlets were transplanted to soil.
The second test of these treated plantlets was to produce choplets and evaluate the choplets' success when transplanted to synthetic soil (Table 4). Choplets were produced from sugarcane plantlets followed by a one-day immersion in a media of water, a known plant media, or a known plant media or water containing a growth hormone, such as (6-benzylaminopurine (BAP) or gibberellins 3 (GA3)). […] Choplet preparation may comprise plantlet hardening treatment and/or media treatment after formation of a choplet.

[3] = choplets in F4 paper tube artificial seeds
[4] = hardening Group B (lowered sucrose)

## c1ccc(CNc2ncnc3nc[nH]c23)cc1 [BAP, 6-benzylaminopurine]
Sugarcane choplets [1]; [3]
  Surviving on day 6: 20
  Surviving on day 17 (% surviving): 55%
  Surviving on day 17 (number): 11
Sugarcane choplets [1]; unembedded choplets
  Surviving on day 6: 6
  Surviving on day 17 (% surviving): 7%
  Surviving on day 17 (number): 1
Sugarcane choplets [2]; hardening Group A (LPM)
  % surviving: 18%
  alive @ day 10: 7
Sugarcane choplets [2]; [4]
  % surviving: 28%
  alive @ day 10: 11
Sugarcane choplets [2]; hardening Group C (PEG-6000)
  % surviving: 25%
  alive @ day 10: 10

## C=C1C[C@]23C[C@@]1(O)CC[C@H]2[C@@]12C=C[C@H](O)[C@@](C)(C(=O)O1)[C@H]2[C@@H]3C(=O)O [GA3, gibberellins 3]
Sugarcane choplets [1]; [3]
  Surviving on day 6: 20
  Surviving on day 17 (% surviving): 30%
  Surviving on day 17 (number): 6
Sugarcane choplets [1]; unembedded choplets
  Surviving on day 6: 9
  Surviving on day 17 (% surviving): 29%
  Surviving on day 17 (number): 4
Sugarcane choplets [2]; hardening Group A (LPM)
  % surviving: 10%
  alive @ day 10: 4
Sugarcane choplets [2]; [4]
  % surviving: 25%
  alive @ day 10: 10
Sugarcane choplets [2]; hardening Group C (PEG-6000)
  % surviving: 38%
  alive @ day 10: 15
